Data published in patent US20220145264A1, “CULTURE MEDIUM FOR MAMMALIAN EXPANDED POTENTIAL STEM CELLS, COMPOSITION, AND METHODS THEREOF” (THE UNIVERSITY OF HONG KONG, priority 2019, published 2022).
Entries after “also recorded” stand apart in the source; their conditions may differ.

Legend:
[1] = tested on: H1-EPSCs; test: Requirement of individual culture components for hEPSCs (RT-qPCR, AP+ colony formation); assay type: cell-based, human
Protocol: (§1) Porcine and human EPSC cultures were routinely maintained on STO feeders. STO feeder plates were prepared 3-4 days before passaging by thawing and plating the mitomycin C inactivated STO cells on 0.1% gelatinised plates at the density of ˜1.1×10^4 cells/cm^2. Porcine/human EPSC cells were maintained on STO feeder layers and enzymatically passaged every 3-5 days by a brief PBS wash followed by treatment for 3-5 minutes with 0.25% trypsin/EDTA (Gibco, Cat. No. 25500-054). The cells were dissociated and centrifuged (300 g×5 minutes) in M10 medium. M10: knockout DMEM (Gibco, Cat. No. 10829-018), 10% FBS (Gibco, Cat. No. 10270), 1× Glutamine Penicillin-Streptomycin (Thermo Fisher Scientific, Cat. No. 11140050) and 1×NEAA (Thermo Fisher Scientific, Cat. No. 10378-016). After removing supernatant, the porcine/human EPSCs were re-suspended and seeded in pEPSCM/hEPSCM supplemented with 5 μM ROCK inhibitor Y-27632 (Tocris, Cat. No. 1254). 5% FBS (Gibco, Cat. No. 10270) and 10% KnockOut Serum Replacement (KSR) (Gibco, Cat. No. 10828028) were added in pEPSCM and hEPSCM respectively to improve cells survive. 12-24 hours later, medium was switched to pEPSCM/hEPSCM only. Both pEPSCM and hEPSCM are N2B27 based media. N2B27 basal media (500 ml) was prepared by inclusion of the following components: 482.5 ml DMEM/F-12 (Gibco, Cat. No. 21331-020), 2.5 ml N2 supplement (Thermo Fisher Scientific, Cat. No. 17502048), 5 ml B27 supplement (Thermo Fisher Scientific, Cat. No. 17504044), 5 ml 1× Glutamine Penicillin-Streptomycin (Thermo Fisher Scientific, Cat. No. 11140-050), and 5 ml 1×NEAA (Thermo Fisher Scientific, Cat. No. 10378-016), 0.1 mM 2-mercaptoethanol (Sigma, Cat. No. M6250). pEPSCM (500 ml) was generated by adding the following small molecules and cytokines into 500 ml N2B27 basal media: 0.2 μM CHIR99021(GSK3i, TOCRIS, Cat. No. 4423), 1 μM WH-4-023 (SRC inhibitor, TOCRIS, Cat. No. 5413), 2.5 μM XAV939 (Sigma, Cat. No. X3004) or 2.5 μM IWR-1 (TOCRIS, Cat. No. 3532), […] Vitamin C (Sigma, Cat. No. 49752-100G), 10 ng/ml LIF (Stem Cell Institute, University of Cambridge. SCI) and 20 ng/ml ACTIVIN (SCI). hEPSCM (500 ml) was generated by adding the following components into 500 ml N2B27 basal media: 1.0 μM CHIR99021(GSK3 inhibitor, TOCRIS, Cat. No. 4423), 0.5 μM A-419259 (SRC inhibitor, TOCRIS, Cat. No. 3914), 2.5 μM XAV939 (Sigma, Cat. No. X3004), […] Vitamin C (Sigma, Cat. No. 49752-100G), 10 ng/ml LIF (SCI). Although both targeting SRC family kinases (SFKs), WH-4-023 and A419259 were preferred for porcine and human EPSCs, respectively. […] The concentrations of CHIR99021 for porcine and human EPSC cultures are 0.2 μM and 1.0 μM, respectively. […] 0.25 μM SB 590885 (BRAF inhibitor, R&D, Cat. No. 2650) and 2.0 μM SP600125 ([…], TOCRIS, Cat. No. 1496) were included to improve porcine and human EPSC cultures, but they were not essential for the routine maintenance of porcine and human EPSCs. All cell cultures in this paper were performed under conditions of 37° C. and 5% CO2 unless stated otherwise.
(§2) Total RNA was isolated using an RNeasy Mini Kit (Qiagen, Cat. No. 74106) for cultured cells or RNeasy Micro Kit (Qiagen, Cat. No. 74034) for sorted NANOS3-mCherry^+ cells. RNA was subsequently quantified and treated with gDNA WipeOut to remove genomic DNA. Complementary DNA (cDNA) was prepared using a QuantiTect Reverse Transcription Kit (Qiagen, Cat. No. 205311). RT-qPCR primers or TaqMan Gene Expression Assays (Life Technologies) are listed in Supplementary Table 10 and 11. ABsolute Blue qPCR ROX Mix (ABgene, Cat. No. AB4138B) were used for probe based qPCR assays and SYBR Green ROX qPCR Mastermix (Qiagen, Cat. No. 330523) were used for primer based qPCR assays. All qPCR reactions were performed on ABI 7900 HT Sequence Detection System (Life Technologies). Information on all primers and probes used for qPCR analysis are provided in Supplementary Table 10 and 11. Gene expression was determined relative to GAPDH using the […]. […]

[2] = tested on: pEPSCs^Emb; test: Requirement of individual culture components for pEPSCs (RT-qPCR, AP+ colony formation); assay type: cell-based, porcine; conditions: for number of colonies from single cells / pluripotency gene expression: removing the component from pEPSCM
Protocol: as §1, §2

[3] = tested on: human EPSCs; test: Differentiation of human EPSCs to trophoblast lineages (CDX2-H2B-Venus reporter flow cytometry, RT-qPCR); assay type: cell-based
Protocol: hEPSCs were dissociated with 0.25% trypsin/EDTA and seeded in gelatinised 6-well plates at a density of 0.1×10^6 cells/well. The cells were cultured in 20% KSR media supplemented with 5 μM ROCK inhibitor Y-27632 for 1 day. 20% KSR media: DMEM/F-12 (Gibco, Cat. No. 21331-020), 20% KnockOut Serum Replacement (KSR) (Gibco, Cat. No. 10828-028), 1× glutamine penicillin-streptomycin (Thermo Fisher Scientific, Cat. No. 11140-050), 1×NEAA (Thermo Fisher Scientific, Cat. No. 10378-016) and 0.1 mM 2-mercaptoethanol (Sigma, Cat. No. M6250). From the second day, different combinations of the TGFβ inhibitor SB431542 (10 μM, Tocris, Cat. No. 1514), BMP4 (50 ng/ml, R&D, Cat. No. 5020-BP) and the FGF receptor inhibitor PD173074 (0.1 μM, Tocris, Cat. No. 3044) were added into 20% KSR media to start the trophoblast differentiation. The cells were collected at indicated time points for analysis.

CN1CCN(C2CCC(n3cc(-c4ccc(Oc5ccccc5)cc4)c4c(N)ncnc43)CC2)CC1 (stereo not drawn) [A419259]
expression of pluripotency factors ([1]; removal of the SRC inhibitor, human EPSCs): reduced expression of pluripotency factors

Cc1c[nH]c(-c2cnc(NCCNc3ccc(C#N)cn3)nc2-c2ccc(Cl)cc2Cl)n1 [CHIR99021]
differentiation of EPSCs ([2]; high concentration 3.0 μM, porcine EPSCs): induced differentiation; also recorded: induces porcine and human EPSC differentiation
proliferation ([2]; porcine EPSCs): improved proliferation
number of colonies from single cells [2]: reduced
pluripotency gene expression [2]: did not affect
differentiation of EPSCs ([1]; high concentration 3.0 μM, human EPSCs): induced differentiation; also recorded: induces porcine and human EPSC differentiation
proliferation ([1]; human EPSCs): improved proliferation

NC(=O)c1ccc(-c2nc(-c3ccc4c(c3)OCO4)c(-c3ccccn3)[nH]2)cc1 [SB431542]
CDX2 reporter cells being CDX2-Venus+ ([3]; TGFβ inhibition, cells collected 4 days after): 70%
cell survival and pluripotency factor expression ([2]; adding the TGFβ inhibitor to pEPSCM): massive cell loss and down-regulation of pluripotency factors
cell differentiation ([1]; adding the TGFβ inhibitor, human EPSCs): induced rapid cell differentiation

O=C1O[C@H]([C@@H](O)CO)C(O)=C1O [Vitamin C]
number of colonies from single cells [2]: reduced
pluripotency gene expression [2]: did not affect

COc1ccc(N(C(=O)Oc2c(C)cccc2C)c2ccnc(Nc3ccc(N4CCN(C)CC4)cc3)n2)c(OC)c1 [WH-4-023]
expression of pluripotency factors ([2]; removal of the SRC inhibitor, porcine EPSCs): reduced expression of pluripotency factors
pluripotency gene expression ([1]; WH-4-023 used instead of A419259 in human EPSCs): lower pluripotency gene expression

B1: BMP4: cytokine (R&D, Cat. No. 5020-BP) promoting differentiation of human ESCs to putative trophoblasts (protein, UniProt P21275 293-408, looked up)
Bone morphogenetic protein 4: SPKHHPQRSRKKNKNCRRHSLYVDFSDVGWNDWIVAPPGYQAFYCHGDCPFPLADHLNSTNHAIVQTLVNSVNSSIPKACCVPTELSAISMLYLDEYDKVVLKNYQEMVVEGCGCR
expression of trophoblast genes ([3]; 4-day BMP4 treatment, H1-EPSCs and iPSC-EPSCs versus H1-ESCs or H1-5i naïve ESCs): induced expression of trophoblast genes
